Values of other authors, collected in article PMC8354143, “Cy3-RgIA-5727 Labels and Inhibits α9-Containing nAChRs of Cochlear Hair Cells” (Frontiers in Cellular Neuroscience, 2021).

Legend:
[1] = test system: voltage-gated calcium channels in the efferent terminals

Substance	antagonism of α9-containing nAChRs (α9-containing nAChRs)	time course of block of voltage-gated calcium channels [1] [min]
α-Conotoxin-RgIA	specific and potent antagonist of α9-containing nAChRs	
ω-conotoxin GVIA		15 to 20
